Laboratory results as given in patent US9120770B2, “Substituted pyridine and pyrazine compounds as PDE4 inhibitors” (DART NEUROSCIENCE (CAYMAN) LTD., priority 2013, dated 2015).

biological target: PDE4D3 (Homo sapiens, UniProt Q08499)
Sequence (Q08499 1-673 isoform Q08499-2): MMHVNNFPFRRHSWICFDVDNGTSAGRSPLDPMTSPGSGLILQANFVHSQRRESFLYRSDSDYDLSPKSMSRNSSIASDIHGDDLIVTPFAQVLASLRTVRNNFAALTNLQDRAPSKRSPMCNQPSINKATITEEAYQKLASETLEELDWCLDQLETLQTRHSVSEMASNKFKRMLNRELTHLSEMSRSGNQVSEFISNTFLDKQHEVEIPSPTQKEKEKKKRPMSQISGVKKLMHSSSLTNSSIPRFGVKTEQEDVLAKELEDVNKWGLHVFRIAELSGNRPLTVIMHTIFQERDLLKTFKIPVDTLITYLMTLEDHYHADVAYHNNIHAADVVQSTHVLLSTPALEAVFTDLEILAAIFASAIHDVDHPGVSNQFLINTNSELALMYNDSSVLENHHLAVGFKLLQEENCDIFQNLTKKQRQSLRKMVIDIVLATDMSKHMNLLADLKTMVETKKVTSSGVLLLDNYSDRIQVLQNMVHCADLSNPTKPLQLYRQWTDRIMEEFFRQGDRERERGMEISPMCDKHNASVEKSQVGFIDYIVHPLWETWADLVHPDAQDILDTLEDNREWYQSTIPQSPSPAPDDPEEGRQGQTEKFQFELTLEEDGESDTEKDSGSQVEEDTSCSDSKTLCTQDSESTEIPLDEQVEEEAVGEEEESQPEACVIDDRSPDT

EC50 [nM] | Compound
100 to 1000 | NC(=O)C1(c2ccc(Cc3cnc(OC(F)F)c(-c4cccc(Cl)c4)c3)cc2)CC1 [Example 245, 1-(4-{[5-(3-Chlorophenyl)-6-(difluoromethoxy)pyridin-3-yl]methyl}phenyl)cyclopropane-1-carboxamide]
< 100 | NC(=O)Cc1ccc(Cc2cnc(OC(F)F)c(-c3cccc(Cl)c3)c2)cc1 [Example 246, 2-(4-{[5-(3-Chlorophenyl)-6-(difluoromethoxy)pyridin-3-yl]methyl}phenyl)acetamide]
1000 to 10000 | COc1ncc(Cn2cnc(C(C)(C)O)n2)cc1-c1cccc(Cl)c1 [Example 247, 2-(1-{[5-(3-Chlorophenyl)-6-methoxypyridin-3-yl]methyl}-1H-1,2,4-triazol-3-yl)propan-2-ol]
1000 to 10000 | COc1ncc(Cn2cncn2)cc1-c1cnn(C)c1 [Example 248, 2-Methoxy-3-(1-methyl-1H-pyrazol-4-yl)-5-(1H-1,2,4-triazol-1-ylmethyl)pyridine]
> 10000 | COc1ncc(Cn2ncnc2C(C)(C)O)cc1-c1cccc(Cl)c1 [Example 249, 2-(1-{[5-(3-Chlorophenyl)-6-methoxypyridin-3-yl]methyl}-1H-1,2,4-triazol-5-yl)propan-2-ol]
100 to 1000 | COc1ncc(Cc2ccc(C(C)(C)O)cc2)cc1-c1cccc(Cl)c1 [Example 250, 2-(4-{[5-(3-Chlorophenyl)-6-methoxypyridin-3-yl]methyl}phenyl)propan-2-ol]
100 to 1000 | COc1ncc(Cc2ccc(C(C)(C)O)nc2)cc1-c1cccc(Cl)c1 [Example 251, 2-(5-{[5-(3-Chlorophenyl)-6-methoxypyridin-3-yl]methyl}pyridin-2-yl)propan-2-ol]
100 to 1000 | CC(C)(O)c1ccc(Cc2cnc(OC(F)F)c(-c3cccc(Cl)c3)c2)cn1 [Example 252, 2-(5-{[5-(3-Chlorophenyl)-6-(difluoromethoxy)pyridin-3-yl]methyl}pyridin-2-yl)propan-2-ol]
< 100 | COc1ncc(Cn2cnc(CF)n2)cc1-c1cccc(OC(F)F)c1 [Example 253, 3-[3-(Difluoromethoxy)phenyl]-5-{[3-(fluoromethyl)-1H-1,2,4-triazol-1-yl]methyl}-2-methoxypyridine]
100 to 1000 | CCOc1ncc(Cn2cc(CF)nn2)cc1-c1cccc(OC(F)F)c1 [Example 254, 3-[3-(Difluoromethoxy)phenyl]-2-ethoxy-5-{[4-(fluoromethyl)-1H-1,2,3-triazol-1-yl]methyl}pyridine]
100 to 1000 | CCOc1cccc(-c2cc(Cn3cnc(CF)n3)cnc2OC(F)F)c1 [Example 255, 2-(Difluoromethoxy)-3-(3-ethoxyphenyl)-5-{[3-(fluoromethyl)-1H-1,2,4-triazol-1-yl]methyl}pyridine]
< 100 | COc1ncc(Cn2cnc(CF)n2)cc1-c1ccnc(OC(F)F)c1 [Example 256, 3-[2-(Difluoromethoxy)pyridin-4-yl]-5-{[3-(fluoromethyl)-1H-1,2,4-triazol-1-yl]methyl}-2-methoxypyridine]
1000 to 10000 | CCOc1ncc(Cn2cnc(CF)n2)nc1-c1cccc(OC(F)F)c1 [Example 257, 3-[3-(Difluoromethoxy)phenyl]-2-ethoxy-5-{[3-(fluoromethyl)-1H-1,2,4-triazol-1-yl]methyl}pyrazine]
1000 to 10000 | COc1ncc(Cn2cnc(CF)n2)nc1-c1cccc(Cl)c1 [Example 258, 3-(3-Chlorophenyl)-5-{[3-(fluoromethyl)-1H-1,2,4-triazol-1-yl]methyl}-2-methoxypyrazine]
100 to 1000 | FC(F)Oc1ncc(Cn2cnc(C(F)F)n2)cc1-c1cccc(Cl)c1 [Example 259, 3-(3-Chlorophenyl)-2-(difluoromethoxy)-5-{[3-(difluoromethyl)-1H-1,2,4-triazol-1-yl]methyl}pyridine]
< 100 | CCOc1ncc(Cn2cnc(C(F)F)n2)cc1-c1cccc(OC(F)F)c1 [Example 260, 3-[3-(Difluoromethoxy)phenyl]-5-{[3-(difluoromethyl)-1H-1,2,4-triazol-1-yl]methyl}-2-ethoxypyridine]
